Measured values taken from ChEMBL document CHEMBL1201862, “PubChem BioAssay data set” (2004).
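Assay format: 96-well plates, 48-hour exposure. GI50 is the concentration that inhibits growth by half.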 The source made the active and inactive calls. Rule as the data show it: active = GI50 up to about 1.1 µM and inactive = higher.

Tests used:
Assay in all cases: inhibition of tumour cell growth, NCI panel, 48 h
A549 = system: A549
KM12 = system: KM12
TK-10 = system: TK-10
SK-MEL-2 = system: SK-MEL-2
HCC 2998 = system: HCC 2998
KM-20L2 = system: KM-20L2
SW-620 = system: SW-620
UO-31 = system: UO-31
M14 = system: M14
NCI-H23 = system: NCI-H23
DLD-1 = system: DLD-1
MOLT-4 = system: MOLT-4
DMS-114 = system: DMS-114
OVCAR-4 = system: OVCAR-4
RXF 393 = system: RXF 393
NCI-H522 = system: NCI-H522
HOP-62 = system: HOP-62
RPMI-8226 = system: RPMI-8226
OVCAR-3 = system: OVCAR-3
OVCAR-5 = system: OVCAR-5
SK-OV-3 = system: SK-OV-3
HL-60 = system: HL-60
HCT-116 = system: HCT-116
UACC-257 = system: UACC-257
SF-539 = system: SF-539
SN12C = system: SN12C
A498 = system: A498
NCI-H460 = system: NCI-H460
IGROV-1 = system: IGROV-1
U-251 = system: U-251
SNB-75 = system: SNB-75
SNB-19 = system: SNB-19
LOX IMVI = system: LOX IMVI
OVCAR-8 = system: OVCAR-8
ACHN = system: ACHN
K562 = system: K562
EKVX = system: EKVX
CCRF-CEM = system: CCRF-CEM
HT-29 = system: HT-29
NCI-H226 = system: NCI-H226
HOP-92 = system: HOP-92
Malme-3M = system: Malme-3M
COLO 205 = system: COLO 205
LXFL 529 = system: LXFL 529
M19-MEL = system: M19-MEL
SK-MEL-28 = system: SK-MEL-28
786-0 = system: 786-0
CAKI-1 = system: CAKI-1
SK-MEL-5 = system: SK-MEL-5
SF-268 = system: SF-268
SF-295 = system: SF-295
UACC-62 = system: UACC-62
DMS-273 = system: DMS-273
SNB-78 = system: SNB-78
HCT-15 = system: HCT-15

For `CC(=O)N/C(=C\c1ccc(Cc2nc3c([nH]2)C(=O)c2ccccc2C3=O)cc1)c1nc2c([nH]1)C(=O)c1ccccc1C2=O`, the GI50 (A549) was > 100 µM (inactive), the GI50 (KM12) was > 100 µM (inactive) and the GI50 (TK-10) was 78.9 µM (inactive). For the same compound, the GI50 (SK-MEL-2) was > 100 µM (inactive), the GI50 (HCC 2998) was > 100 µM (inactive) and the GI50 (KM-20L2) was > 100 µM (inactive). The GI50 (SW-620) was > 100 µM (inactive), the GI50 (UO-31) was > 100 µM (inactive) and the GI50 (M14) was > 100 µM (inactive). For the same compound, the GI50 (NCI-H23) was > 100 µM (inactive), the GI50 (DLD-1) was > 100 µM (inactive) and the GI50 (MOLT-4) was > 100 µM (inactive). The GI50 (DMS-114) was > 100 µM (inactive), the GI50 (OVCAR-4) was > 100 µM (inactive) and the GI50 (RXF 393) was > 100 µM (inactive). For the same compound, the GI50 (NCI-H522) was > 100 µM (inactive), the GI50 (HOP-62) was > 100 µM (inactive) and the GI50 (RPMI-8226) was > 100 µM (inactive). For the same compound, the GI50 (OVCAR-3) was > 100 µM (inactive), the GI50 (OVCAR-5) was > 100 µM (inactive) and the GI50 (SK-OV-3) was > 100 µM (inactive). The GI50 (HL-60) was > 100 µM (inactive), the GI50 (HCT-116) was > 100 µM (inactive) and the GI50 (UACC-257) was > 100 µM (inactive). For the same compound, the GI50 (SF-539) was > 100 µM (inactive), the GI50 (SN12C) was > 100 µM (inactive) and the GI50 (A498) was > 100 µM (inactive). The GI50 (NCI-H460) was > 100 µM (inactive), the GI50 (IGROV-1) was > 100 µM (inactive) and the GI50 (U-251) was 78.5 µM (inactive). The GI50 (SNB-75) was 86.3 µM (inactive), the GI50 (SNB-19) was > 100 µM (inactive) and the GI50 (LOX IMVI) was > 100 µM (inactive). The GI50 (OVCAR-8) was 43.5 µM (inactive), the GI50 (ACHN) was > 100 µM (inactive) and the GI50 (K562) was > 100 µM (inactive). The GI50 (EKVX) was > 100 µM (inactive), the GI50 (CCRF-CEM) was > 100 µM (inactive) and the GI50 (HT-29) was > 100 µM (inactive). For the same compound, the GI50 (NCI-H226) was > 100 µM (inactive), the GI50 (HOP-92) was > 100 µM (inactive) and the GI50 (Malme-3M) was > 100 µM (inactive). The GI50 (COLO 205) was > 100 µM (inactive), the GI50 (LXFL 529) was > 100 µM (inactive) and the GI50 (M19-MEL) was > 100 µM (inactive). For the same compound, the GI50 (SK-MEL-28) was > 100 µM (inactive), the GI50 (786-0) was > 100 µM (inactive) and the GI50 (CAKI-1) was > 100 µM (inactive). The GI50 (SK-MEL-5) was > 100 µM (inactive), the GI50 (SF-268) was > 100 µM (inactive) and the GI50 (SF-295) was > 100 µM (inactive).

With `O=C1C=CC=C/C1=C1/SC(c2ccccc2)=C(O)N1c1ccccc1` the GI50 (A549) was > 100 µM (inactive), the GI50 (KM12) was > 100 µM (inactive) and the GI50 (TK-10) was > 100 µM (inactive). For the same compound, the GI50 (SK-MEL-2) was > 100 µM (inactive), the GI50 (HCC 2998) was > 100 µM (inactive) and the GI50 (KM-20L2) was > 100 µM (inactive). The GI50 (SW-620) was > 100 µM (inactive), the GI50 (UO-31) was > 100 µM (inactive) and the GI50 (NCI-H23) was > 100 µM (inactive). The GI50 (DMS-114) was > 100 µM (inactive), the GI50 (OVCAR-4) was > 100 µM (inactive) and the GI50 (RXF 393) was > 100 µM (inactive). For the same compound, the GI50 (NCI-H522) was > 100 µM (inactive), the GI50 (OVCAR-3) was > 100 µM (inactive) and the GI50 (OVCAR-5) was > 100 µM (inactive). For the same compound, the GI50 (SK-OV-3) was > 100 µM (inactive), the GI50 (UACC-62) was > 100 µM (inactive) and the GI50 (HCT-116) was > 100 µM (inactive). The GI50 (DMS-273) was > 100 µM (inactive), the GI50 (UACC-257) was > 100 µM (inactive) and the GI50 (SF-539) was > 100 µM (inactive). The GI50 (SN12C) was > 100 µM (inactive), the GI50 (IGROV-1) was > 100 µM (inactive) and the GI50 (U-251) was > 100 µM (inactive). The GI50 (SNB-75) was > 100 µM (inactive), the GI50 (SNB-78) was > 100 µM (inactive) and the GI50 (SNB-19) was > 100 µM (inactive). The GI50 (OVCAR-8) was > 100 µM (inactive), the GI50 (HCT-15) was > 100 µM and the GI50 (ACHN) was > 100 µM (inactive). For the same compound, the GI50 (EKVX) was > 100 µM (inactive), the GI50 (HT-29) was > 100 µM (inactive) and the GI50 (NCI-H226) was > 100 µM (inactive). For the same compound, the GI50 (HOP-92) was > 100 µM (inactive), the GI50 (Malme-3M) was > 100 µM (inactive) and the GI50 (COLO 205) was > 100 µM (inactive). The GI50 (LXFL 529) was > 100 µM (inactive), the GI50 (M19-MEL) was > 100 µM (inactive) and the GI50 (SK-MEL-28) was > 100 µM (inactive). For the same compound, the GI50 (786-0) was > 100 µM (inactive), the GI50 (CAKI-1) was > 100 µM (inactive) and the GI50 (SK-MEL-5) was > 100 µM (inactive). For the same compound, the GI50 (SF-268) was > 100 µM (inactive) and the GI50 (SF-295) was > 100 µM (inactive).

In the case of `COC(=O)c1cc(C)n(NC(=O)OC(C)(C)C)c1C`, the GI50 (A549) is reported as > 100 µM (inactive), the GI50 (KM12) is reported as > 100 µM (inactive) and the GI50 (TK-10) is reported as > 100 µM (inactive). The GI50 (SK-MEL-2) was > 100 µM (inactive), the GI50 (HCC 2998) was > 100 µM (inactive) and the GI50 (KM-20L2) was > 100 µM (inactive). The GI50 (SW-620) was > 100 µM (inactive), the GI50 (UO-31) was > 100 µM (inactive) and the GI50 (M14) was > 100 µM (inactive). For the same compound, the GI50 (NCI-H23) was > 100 µM (inactive), the GI50 (DLD-1) was > 100 µM (inactive) and the GI50 (MOLT-4) was > 100 µM (inactive). For the same compound, the GI50 (DMS-114) was > 100 µM (inactive), the GI50 (RXF 393) was > 100 µM (inactive) and the GI50 (NCI-H522) was > 100 µM (inactive). The GI50 (HOP-62) was > 100 µM (inactive), the GI50 (RPMI-8226) was > 100 µM (inactive) and the GI50 (OVCAR-3) was > 100 µM (inactive). The GI50 (OVCAR-5) was > 100 µM (inactive), the GI50 (SK-OV-3) was > 100 µM (inactive) and the GI50 (HL-60) was > 100 µM (inactive). For the same compound, the GI50 (UACC-62) was > 100 µM (inactive), the GI50 (HCT-116) was > 100 µM (inactive) and the GI50 (DMS-273) was > 100 µM (inactive). For the same compound, the GI50 (UACC-257) was > 100 µM (inactive), the GI50 (SF-539) was > 100 µM (inactive) and the GI50 (SN12C) was > 100 µM (inactive). The GI50 (A498) was > 100 µM (inactive), the GI50 (NCI-H460) was > 100 µM (inactive) and the GI50 (IGROV-1) was > 100 µM (inactive). For the same compound, the GI50 (U-251) was > 100 µM (inactive), the GI50 (SNB-75) was > 100 µM (inactive) and the GI50 (SNB-78) was 95.1 µM (inactive). For the same compound, the GI50 (SNB-19) was > 100 µM (inactive), the GI50 (LOX IMVI) was > 100 µM (inactive) and the GI50 (OVCAR-8) was > 100 µM (inactive). For the same compound, the GI50 (HCT-15) was > 100 µM, the GI50 (ACHN) was > 100 µM (inactive) and the GI50 (K562) was > 100 µM (inactive). For the same compound, the GI50 (EKVX) was > 100 µM (inactive), the GI50 (CCRF-CEM) was > 100 µM (inactive) and the GI50 (HT-29) was > 100 µM (inactive). For the same compound, the GI50 (NCI-H226) was > 100 µM (inactive), the GI50 (Malme-3M) was > 100 µM (inactive) and the GI50 (COLO 205) was > 100 µM (inactive). The GI50 (LXFL 529) was > 100 µM (inactive), the GI50 (M19-MEL) was > 100 µM (inactive) and the GI50 (SK-MEL-28) was > 100 µM (inactive). For the same compound, the GI50 (786-0) was > 100 µM (inactive), the GI50 (CAKI-1) was > 100 µM (inactive) and the GI50 (SK-MEL-5) was > 100 µM (inactive). For the same compound, the GI50 (SF-268) was > 100 µM (inactive) and the GI50 (SF-295) was > 100 µM (inactive).
